Each structure is given as a SMILES string.

A word on the IC50: it is the concentration at which inhibition is half-maximal.

This test deals with HepG2 cells. Kind of test: Test Example 2: inhibition of apolipoprotein B secretion from HepG2 cells, ELISA (also used for metabolites in Test Example 8). Format: cell-based. The following applies: Homo sapiens, 24 hours, apo B in supernatant by ELISA, read-out: Test Example 2 Inhibition of apo B secretion IC50. The protocol:
Inhibition of Apolipoprotein B Secretion from HepG2 Cells
HepG2 cells were suspended in Dulbecco's Modified Eagle's Medium (DMEM) (containing 10% fetal bovine serum, 100 units/mL penicillin and 100 μg/mL streptomycin), and placed on a 96-well plate (4×10^4 cells/well), then incubated for 24 hours. After removal of the medium, DMEM was replaced by a medium containing a sample dissolved in DMSO or a medium containing DMSO (concentration of DMSO: 0.5%) and incubation was further performed for 24 hours, after which the supernatant was recovered, and concentration of apo B in the supernatant was assayed by Enzyme-Linked Immunosorbent Assay (ELISA)
ELISA was carried out as follows. Anti-human apo B monoclonal antibody (0.5 μg/well) diluted with a solution of sodium carbonate in sodium bicarbonate buffer (50 mL, pH 9.6) was placed in a 96-well plate for ELISA, and allowed to stand at room temperature for 15 hours. After washing the plate, a blocking solution (250 μL/well) was placed in the well, and allowed to stand at room temperature for 1.5 hours. After washing the plate, a standard and a sample (100 μL/well) were placed in the well and allowed to stand at room temperature for one hour. The standard was prepared by adjusting the concentration of the purified human apo B with the DMEM to 0 to 1000 ng/mL. After washing the plate, an anti-human apo B polyclonal antibody labeled with a horse radish peroxidase which was diluted in 1:1000 with DEME (100 μL/well), and allowed to stand at room temperature for one hour. After washing the plate, 2,2-azinobis(3-ethylbenzothiazoline-6-sulfonic acid) solution (100 μL/well) was placed in the well, and allowed to stand at room temperature for one hour. The reaction was stopped by addition of 2% oxalic acid (100 μL/well), and absorbency at 405 nm was measured. Concentration of apo B in the sample was calculated on the basis of a standard curve of the standard. Inhibition rate (%) was calculated from the assayed values in accordance with the following equation.
Inhibition rate (%)=100×(1 minus (concentration of apo B in sample group/concentration of apo B in DMSO group).
Based on the above equation, 50% inhibition concentration (IC50) was determined.
Inhibitory Activity on MTP and apo B Secretion Inhibition by Metabolites
In a similar manner to Test Examples 1 and 2, the activity of metabolites was assayed.
For orientation: ELISA stands for enzyme-linked immunosorbent assay.
Turning to `CCOC(=O)C(COC(=O)Cc1cc(C(=O)N(C)C)c(NC(=O)c2ccccc2-c2ccc(C(F)(F)F)cc2)cc1F)(C(=O)OCC)c1ccccc1` [Example 2-58], the IC50 was 1.9 nM. The result for `CCOC(=O)C(COC(=O)Cc1cc(Br)c(NC(=O)c2ccccc2-c2ccc(C(F)(F)F)cc2)c(C(=O)N(C)C)c1)(C(=O)OCC)c1ccccn1` [Example 2-59] reads 0.99 nM; that for `CCOC(=O)C(COC(=O)Cc1cc(Cl)c(NC(=O)c2ccccc2-c2ccc(C(F)(F)F)cc2)c(C(=O)N(C)C)c1)(C(=O)OCC)c1ccccc1` [Example 2-60], 1.3 nM. The result for `CCOC(=O)C(COC(=O)Cc1ccc(NC(=O)c2ccccc2-c2ccc(C(F)(F)F)c(F)c2)c(C(=O)N(C)C)c1)(C(=O)OCC)c1ccccc1` [Example 2-61] reads 0.38 nM; that for `CCOC(=O)C(COC(=O)Cc1ccc(NC(=O)c2ccccc2-c2ccc(C(F)(F)F)c(Cl)c2)c(C(=O)N(C)C)c1)(C(=O)OCC)c1ccccc1` [Example 2-62], 0.37 nM.

Regarding `CCOC(=O)C(COC(=O)Cc1cc(C(=O)N(C)C)c(NC(=O)c2ccccc2-c2ccc(C(F)(F)F)cc2)c(Cl)c1F)(C(=O)OCC)c1ccccc1` [Example 2-66], the IC50 came out at 57 nM. The result for `CCOC(=O)C(COC(=O)Cc1cc(C(=O)N(C)C)c(NC(=O)c2ccccc2-c2ccc(C(F)(F)F)cc2)c(Br)c1F)(C(=O)OCC)c1ccccc1` [Example 2-67] reads 43 nM. With `CCOC(=O)C(COC(=O)Cc1ccc(NC(=O)c2ccccc2-c2ccc(C(F)(F)F)cc2)c(C(=O)N(C)C)c1)(C(=O)OCC)c1ccccc1C` [Example 2-68], the IC50 turned out to be 2.25 nM.

`CCOC(=O)C(COC(=O)Cc1ccc(NC(=O)c2ccccc2-c2ccc(C(F)(F)F)cc2)c(C(=O)N(C)C)c1)(C(=O)OCC)c1cccc(C)c1` [Example 2-69]: the IC50 is 0.91 nM.

As to `CCOC(=O)C(COC(=O)Cc1ccc(NC(=O)c2ccccc2-c2ccc(C(F)(F)F)cc2)c(C(=O)N(C)C)c1)(C(=O)OCC)c1ccc(C)cc1` [Example 2-70], the IC50 was 2.34 nM.

With `CCOC(=O)C(COC(=O)Cc1ccc(NC(=O)c2ccccc2-c2ccc(C(F)(F)F)cc2)c(C(=O)N(C)C)c1)(C(=O)OCC)c1ccccc1Cl` [Example 2-71], the IC50 was found to be 0.54 nM. Next, `CCOC(=O)C(COC(=O)Cc1ccc(NC(=O)c2ccccc2-c2ccc(C(F)(F)F)cc2)c(C(=O)N(C)C)c1)(C(=O)OCC)c1cccc(Cl)c1` [Example 2-72]: 0.95 nM; `CCOC(=O)C(COC(=O)Cc1ccc(NC(=O)c2ccccc2-c2ccc(C(F)(F)F)cc2)c(C(=O)N(C)C)c1)(C(=O)OCC)c1ccc(Cl)cc1` [Example 2-73]: 2.93 nM; `CCOC(=O)CC(COC(=O)Cc1ccc(NC(=O)c2ccccc2-c2ccc(C(F)(F)F)cc2)c(C(=O)N(C)C)c1)(C(=O)OCC)c1ccccc1` (stereo not drawn) [Example 2-74]: 0.84 nM.

Take `CCOC(=O)C(COC(=O)Cc1ccc(NC(=O)c2ccccc2-c2ccc(C(F)(F)F)cc2)c(C(=O)N(C)C)c1)(C(=O)OCC)c1ccccc1OC` [Example 2-75]: the half-maximal inhibitory concentration (IC50) turned out to be 12.5 nM. Next, `CCOC(=O)C(COC(=O)Cc1ccc(NC(=O)c2ccccc2-c2ccc(C(F)(F)F)cc2)c(C(=O)N(C)C)c1)(C(=O)OCC)c1cccc(OC)c1` [Example 2-76]: 0.85 nM; `CCOC(=O)C(COC(=O)Cc1ccc(NC(=O)c2ccccc2-c2ccc(C(F)(F)F)cc2)c(C(=O)N(C)C)c1)(C(=O)OCC)c1ccc(OC)cc1` [Example 2-77]: 2.74 nM; `CCOC(=O)C(COC(=O)Cc1ccc(NC(=O)c2ccc(C(F)(F)F)cc2-c2ccc(C(F)(F)F)cc2)c(C(=O)N(C)C)c1)(C(=O)OCC)c1ccccc1` [Example 2-78]: 0.14 nM. The result for `CCOC(=O)C(COC(=O)Cc1ccc(NC(=O)c2cccc(Cl)c2-c2ccc(C(F)(F)F)cc2)c(C(=O)N(C)C)c1)(C(=O)OCC)c1ccccc1` [Example 2-79] reads 1.3 nM. `CCOC(=O)C(COC(=O)Cc1ccc(NC(=O)c2cccc(F)c2-c2ccc(C(F)(F)F)cc2)c(C(=O)N(C)C)c1)(C(=O)OCC)c1ccccc1` [Example 2-80]: the IC50 is 0.79 nM. The result for `CCOC(=O)C(CCOC(=O)Cc1ccc(NC(=O)c2ccc(C)cc2-c2ccc(C(F)(F)F)cc2)c(C(=O)N(C)C)c1)(C(=O)OCC)c1ccccc1` [Example 2-81] reads 0.96 nM; that for `CCOC(=O)C(COC(=O)Cc1ccc(NC(=O)c2ccc(OCC)cc2-c2ccc(C(F)(F)F)cc2)c(C(=O)N(C)C)c1)(C(=O)OCC)c1ccccc1` [Example 2-82], 4.41 nM; that for `CCOC(=O)C(COC(=O)Cc1ccc(NC(=O)c2ccc(OC(C)C)cc2-c2ccc(C(F)(F)F)cc2)c(C(=O)N(C)C)c1)(C(=O)OCC)c1ccccc1` [Example 2-83], 8.87 nM. The result for `CCOC(=O)C(CCOC(=O)Cc1ccc(NC(=O)c2ccc(C(F)(F)F)cc2-c2ccc(C(F)(F)F)cc2)c(C(=O)N(C)C)c1)(C(=O)OCC)c1ccccc1` [Example 2-84] reads 2.01 nM; that for `CCOC(=O)C(COC(=O)Cc1ccc(NC(=O)c2cccc(OC)c2-c2ccc(C(F)(F)F)cc2)c(C(=O)N(C)C)c1)(C(=O)OCC)c1ccccc1` [Example 2-85], 0.49 nM. Take `CCOC(=O)C(COC(=O)Cc1ccc(NC(=O)c2c(C)cccc2-c2ccc(C(F)(F)F)cc2)c(C(=O)N(C)C)c1)(C(=O)OCC)c1ccccc1` [Example 2-86]: the IC50 is 0.42 nM. Next, `CCOC(=O)C(COC(=O)Cc1ccc(NC(=O)c2ccccc2-c2ccc(C)cc2)c(C(=O)N(C)C)c1)(C(=O)OCC)c1ccccc1` [Example 2-88]: 1.92 nM; `CCOC(=O)C(COC(=O)Cc1ccc(NC(=O)c2ccccc2-c2ccc(CC)cc2)c(C(=O)N(C)C)c1)(C(=O)OCC)c1ccccc1` [Example 2-90]: 1.74 nM. Next, `C=C(C)c1ccc(-c2ccccc2C(=O)Nc2ccc(CC(=O)OCC(C(=O)OCC)(C(=O)OCC)c3ccccc3)cc2C(=O)N(C)C)cc1` [Example 2-91]: 0.54 nM; `CCOC(=O)C(COC(=O)Cc1ccc(NC(=O)c2ccccc2-c2ccc(C(C)C)cc2)c(C(=O)N(C)C)c1)(C(=O)OCC)c1ccccc1` [Example 2-92]: 1.47 nM.

Take `C=C(C)c1cc(C(F)(F)F)ccc1C(=O)Nc1ccc(CC(=O)OCC(C(=O)OCC)(C(=O)OCC)c2ccccc2)cc1C(=O)N(C)C` [Example 2-93]: the IC50 was 45.8 nM.

With `CCOC(=O)C(COC(=O)Cc1ccc(NC(=O)c2ccccc2Nc2cccc(C(F)(F)F)c2)c(C(=O)N(C)C)c1)(C(=O)OCC)c1ccccc1` [Example 2-95], the IC50 came to 18 nM. The result for `CCOC(=O)C(COC(=O)Cc1ccc(OC(=O)c2ccccc2-c2ccc(C(F)(F)F)cc2)c(C(=O)N(C)C)c1)(C(=O)OCC)c1ccccc1` [Example 2-96] reads 81 nM; that for `CCOC(=O)C(COC(=O)Cc1ccc(NC(=O)c2ccccc2Oc2cccc(C(F)(F)F)c2)c(C(=O)N(C)C)c1)(C(=O)OCC)c1ccccc1` [Example 2-97], 22 nM; that for `CCC(CC)(COC(=O)Cc1ccc(NC(=O)c2ccccc2-c2ccc(C(F)(F)F)cc2)c(C(=O)N(C)C)c1)c1ccccc1` [Example 2-98], 0.97 nM. The result for `CCOC(=O)C(COC(=O)Cc1ccc(NC(=O)c2ccccc2Oc2ccc(C(F)(F)F)cc2)c(C(=O)N(C)C)c1)(C(=O)OCC)c1ccccc1` [Example 2-99] reads 19 nM.

(Values after patent US7625948B2, “Ester compound and medicinal use thereof” (Japan Tobacco Inc., priority 2002, dated 2009).)
